Patent US20230226043A1 (priority 2020, published 2023)

Tests used:
SARS-CoV-2 [1] = conditions: 10 μM; cited from earlier work
non-senescent BV2 cells = test: Viability of non-senescent BV2 cells, sulforhodamine B (SRB) assay; format: cell-based; conditions: 48 h exposure, masitinib 0.1-2 μM and/or isoquercetin 1-20 μM
Experimental: (§1) BV2 cells are retroviral-immortalized microglia-like cells, which are used as a model for cellular senescence. BV2 cells were cultured in Dulbecco's modified Eagle's medium supplemented with 10% heat-inactivated fetal bovine serum (hiFBS) and plated in 6-well multiwell plates for treatment and flow cytometry analysis.
(§2) For cellular viability analysis of non-senescent cells (BV2 cells) and senescent cells (BV2 cells pretreated with TMZ), cells were plated in 96-well multiwell plates during 72 hours. […] After 48 hours of treatment, cell viability was analyzed by sulforhodamine B (SRB) assay. The optical density (OD) of each well was read in a 96-well plate reader at 540 nm. The OD of the SRB solution is directly proportional to the cell number.

senescent BV2 cells = test: Viability of senescent BV2 cells (pretreated with TMZ), SRB assay; format: cell-based; conditions: for cell viability of senescent BV2 cells, single agent: single agent below the high concentrations (2 μM masitinib, 20 μM isoquercetin)
Experimental: as §1
BV2 cells were treated with temozolomide (TMZ), an alkylating agent inducing DNA damage, in order to induce senescence of the cells. For senescence induction studies, cells were plated and treated twice with increasing doses (10-150 μM) of TMZ during 5 hours every 24 hours. After exposure of BV2 cells to two successive treatments with TMZ, their proliferation was reduced and the cells developed a characteristic senescent phenotype with enlarged size and flat-granulated shape. The senescent phenotype of BV2 cells after TMZ-induced genotoxicity was further confirmed by measuring the number of cells displaying β-gal activity, a well-recognized marker of cellular senescence. After the second TMZ-treatment, flow cytometry analysis was thus carried out using a 5-Dodecanoylaminofluorescein Di-β-D-Galactopyranoside (C12FDG) kit to measure β-galactosidase activity by the alkalinization of lysosomes as described by the manufacturer's instructions (Thermo Fisher Scientific, #D2893). TMZ induced a dose-dependent increase in the number β-gal+ cells. Up to 60% of β-gal+BV2 cells, i.e., senescent cells, were obtained at a TMZ concentration of 100 μM (data not shown).
as §2

[2] = target: picornaviruses 3C protease (Coxsackievirus B3, UniProt P03313); test: 3C protease activity assay, luciferase reporter in Huh7 cells; conditions: n=6, p-value=7×10-6
Chain of picornaviruses 3C protease (P03313 1541-1723 limits assumed): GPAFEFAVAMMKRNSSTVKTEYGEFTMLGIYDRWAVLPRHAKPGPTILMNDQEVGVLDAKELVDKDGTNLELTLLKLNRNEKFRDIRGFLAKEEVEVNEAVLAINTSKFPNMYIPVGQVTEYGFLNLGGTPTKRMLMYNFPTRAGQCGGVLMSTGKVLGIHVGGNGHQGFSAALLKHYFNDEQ

[3] = system: lymphocytic choriomeningitis virus (LCMV); format: cell-based; conditions: 10 μM, n=2, p>0.07
OC43 [4] = test: Dose-response analysis of OC43 infection in A549-mRuby cells; format: cell-based, human beta coronavirus OC43 (HCoV-OC43); conditions: Betacoronavirus 1, OC43, A549, 48 h, read-out: EC50 against OC43 infection
Experimental: Dose-response analysis of OC43 infection was done similarly to the drug screening, except cells were seeded at a concentration of 5,000 cells per well and the media contained 2% BCS instead of 10% BCS. OC43 staining was performed 2 days after infection and analyzed similarly to what was described for the drug screening. A sigmoid fit was used to extract EC50 values using Matlab.

OC43 [5] = test: Drug repurposing screen, OC43 nucleoprotein staining in A549-mRuby cells; format: cell-based, human beta coronavirus OC43 (HCoV-OC43); conditions: for % staining of OC43: normalized to no-drug controls in the same plate
Experimental: (§3) Cells were seeded in a final volume of […] with DMEM+10% BCS. […] All the following steps were performed at room temperature. […] The screen was performed twice.

A549-mRuby cells = test: Cell growth in the drug screen (cell numbers day 4 / day 0); format: cell-based, human
Experimental: as §3

SARS-CoV-2 [6] = test: SARS-CoV-2 progeny production, plaque titers on Vero E6 cells; format: cell-based; conditions: 10 μM; for decrease of SARS-CoV-2 progeny production: 2 h pre-treatment, MOI 0.5, supernatant 2 days
Experimental: For SARS-CoV-2 plaque titers, cell supernatants from the infection described above were serially diluted (10-fold steps were used) and used to infect Vero E6 cells for 1 hour. Inoculum was removed and 1.25% methylcellulose DMEM solution was added to the cells and incubated for 3 days. Plates were fixed in 1:10 formalin for 1 hour, stained with crystal violet for 1 hour and were counted to determine plaque forming units (PFU)/ml.

influenza A virus (IAV) = test: Influenza A infection of MDCK-SIAT1-TMPRSS2 cells; format: cell-based, Influenza A/Puerto Rico/8/1934 (PR8); conditions: 10 μM, n=3, p>0.07
Experimental: MDCK-SIAT1-TMPRSS2 cells were infected with Influenza A/Puerto Rico/8/1934 (PR8) at an MOI of 0.01 TCID50/cell. Following a 1 hour adsorption, virus was removed and the cells were washed. […] Supernatants were harvested and clarified at 20 hours post infection. The supernatants were titrated using TCID on MDCK-SIAT1-TMPRSS2 cells.

measles virus (MeV) = test: Measles virus inhibition assay in Vero cells, luciferase; format: cell-based; conditions: 10 μM, n=3, p>0.07
Experimental: Vero cells were infected with a luciferase-expressing measles virus at an MOI of 0.01 for 90 minutes. The inoculum was removed and added fresh medium containing masitinib or DMSO to the cells for further culture. Three days later, firefly luciferase activity was measured by adding 0.5 mM of D-Luciferin to each well and was quantified with an Infinite M200 Pro multimode microplate reader.

[7] = system: human rhinovirus 2 (HRV2); test: Picornavirus infection of Huh7 cells, plaque titration; format: cell-based; conditions: 10 M [sic] masitinib, MOI 0.01, 24 h
Experimental: (§4) Prior to infection, Huh7 cells were pretreated for two hours. Virus was diluted using serum-free DMEM (SFM) to achieve an MOI of 0.01. Cell supernatants (collected at 24 hours post infection) were dilutions in SFM and used to inoculate Vero cells for 10-15 min at 37 C. Cells were incubated for 2 days at 37 C after overlaying them DMEM containing 2% NBCS and 0.8% agarose. […] The number of plaque forming units (PFU/per milliliter) were then calculated.

[8] = system: human rhinovirus 16 (HRV16); test: as above; format: cell-based; conditions: 10 M [sic] masitinib, MOI 0.01, 24 h
Experimental: as §4

coxsackievirus B3 (CVB3) = test: as above; format: cell-based; conditions: 10 M [sic] masitinib, MOI 0.01, 24 h
Experimental: as §4

[9] = system: human rhinovirus 14 (HRV14); test: as above; format: cell-based; conditions: 10 M [sic] masitinib, MOI 0.01, 24 h
Experimental: as §4

[10] = system: Chikungunya virus (CHIKV); test: Chikungunya virus infection; format: cell-based; conditions: 10 μM, n=3, p>0.07
SARS-CoV-2 [11] = test: SARS-CoV-2 intranasal challenge of K18-hACE2 mice; conditions: bid, ip, vs PBS; for clinical score: 1-6 days post infection
OC43 [12] = test: OC43 replication in primary human airway epithelial cells; format: cell-based, human beta coronavirus OC43 (HCoV-OC43); conditions: Betacoronavirus 1, OC43, Epithelial cell, read-out: EC50, inhibition of OC43 replication
[13] = 25 or 50 mg/kg, 4 and 6 days post infection

O=CC(CC1CCNC1=O)NC(=O)C(CC1CCCCC1)NC(=O)c1cc2ccccc2[nH]1 (stereo not shown) [11a]
inhibition of SARS-CoV-2 progeny production (SARS-CoV-2 [1]): 2 logs

O=CC(CC1CCNC1=O)NC(=O)C(Cc1cccc(F)c1)NC(=O)c1cc2ccccc2[nH]1 (stereo not shown) [11b]
inhibition of SARS-CoV-2 progeny production (SARS-CoV-2 [1]): 2 logs

O=c1c(O[C@@H]2O[C@H](CO)[C@@H](O)[C@H](O)[C@H]2O)c(-c2ccc(O)c(O)c2)oc2cc(O)cc(O)c12 [isoquercetin, 2-(3,4-dihydroxyphenyl)-5,7-dihydroxy-3-[(2S,3R,4S,5S,6R)-3,4,5-trihydroxy-6-(hydroxymethyl)oxan-2-yl]oxychromen-4-one]
cell viability of non-senescent proliferating BV2 cells (non-senescent BV2 cells): no significant change in cell viability
cytotoxicity at 20 µM (senescent BV2 cells; Mus musculus, BV-2, 20 μM isoquercetin alone, 48 h, TMZ-induced senescent BV2 cells, read-out: reduction in senescent cell viability): ~25%
cell viability of senescent BV2 cells, single agent (senescent BV2 cells): modest reduction in cell viability

Cc1ccc(NC(=O)c2ccc(CN3CCN(C)CC3)cc2)cc1Nc1nc(-c2cccnc2)cs1 [masitinib, 4-(4-methylpiperazin-1-ylmethyl)-N-[4-methyl-3-(4-pyridin-3ylthiazol-2-ylamino)phenyl]benzamide]
activity of the 3C protease in cells [2]: significantly inhibited
effect on cells infected by lymphocytic choriomeningitis virus (LCMV) [3]: did not show a significant effect
cell viability of non-senescent proliferating BV2 cells (non-senescent BV2 cells): no significant change in cell viability
EC50 (OC43 [4]): 2100 nM
cytotoxicity at 2 µM (senescent BV2 cells; Mus musculus, BV-2, 48 h, read-out: reduction in senescent cell viability): ~25%
cell viability of senescent BV2 cells, single agent (senescent BV2 cells): modest reduction in cell viability
mean % staining of OC43 (OC43 [5]; mean of two screen repeats, normalized to no-drug controls (=100), drug at 10 PM as printed, day 4): 12.2%
% staining of OC43 (OC43 [5]; screen repeat #1): 14.4%
% staining of OC43 (OC43 [5]; screen repeat #2): 10.1%
number of cells at day 4 divided by number of cells at day 0 (A549-mRuby cells; screen repeat #1): 4.3
number of cells at day 4 divided by number of cells at day 0 (A549-mRuby cells; screen repeat #2): 4.7
decrease of SARS-CoV-2 progeny production (SARS-CoV-2 [6]): over 5 logs
decrease of SARS-CoV-2 progeny production (SARS-CoV-2 [6]; listed as Masitinib): > 5 logs
reduction in viral titers (SARS-CoV-2 progeny) (SARS-CoV-2 [6]; n=3, p<0.001): statistically significant
effect on cells infected by influenza A virus (IAV) (influenza A virus (IAV)): did not show a significant effect
effect on cells infected by measles virus (MeV) (measles virus (MeV)): did not show a significant effect
replication of human rhinovirus 2 (HRV2) [7]: effective in blocking the replication
replication of human rhinovirus 16 (HRV16) [8]: effective in blocking the replication
replication of coxsackievirus B3 (CVB3) (coxsackievirus B3 (CVB3)): effective in blocking the replication
replication of human rhinovirus 14 (HRV14) [9]: effective in blocking the replication
effect on cells infected by Chikungunya virus (CHIKV) [10]: did not show a significant effect
clinical score (SARS-CoV-2 [11]; 25 mg/kg): significant decrease
clinical score (SARS-CoV-2 [11]; 50 mg/kg): significant decrease
SARS-CoV-2 viral load in the lung (SARS-CoV-2 [11]; [13]): significant decrease
SARS-CoV-2 viral load in the nasal turbinates (SARS-CoV-2 [11]; [13]): significant decrease
EC50 (OC43 [12]): 580 nM
